Source: patent publication US8871937B2, “8-hydroxy-quinoline derivatives” (“AVIDIN” Kutato, Fejleszto es Kereskedelmi Korlatolt …, priority 2010, dated 2014)

Legend:
[1] = system: CCRF-CEM (human leukaemia); experiment: MTS cytotoxicity test, CCRF-CEM; assay type: cell-based; conditions: read-out: EC50 (concentration where half of the cells died, MTS test)
Protocol: (§1) In our experiment, HepG2 and Hep3B (human hepatocellular carcinoma), SUM149PT (human breast tumour), K562 (human erythroblastic leukaemia, U87 (human glioma), CCRF-CEM (human leukaemia) cell cultures were used; these were grown in the following medium: U87, CCRF-CEM; Dulbecco's Modified Eagle Medium (D-MEM) (high glucose) (Gibco BRL, Carlsbad, Calif., USA), penicillin (50 IU/ml-streptomycin ([…]), 10% foetal cattle serum.
CCRF-CEM: RPMI Media 1640 (Gibco BRL, Carlsbad, Calif., USA), penicillin (50 IU/ml-streptomycin ([…]), 10% foetal cattle serum.
(§2) The cells were placed into 96-well microtitration plates (10 000 cells/well), and after 24 hours the cells were incubated with the various substances. After incubation MTS test (3-(4,5-dimethylthiazol-2-yl)-5-(3-carboxymethoxyphenyl)-2-(4-sulphophenyl)-2H-tetrazolium) (Promega, Madison, Wis., USA) was conducted adding it in a final concentration of 0.5 mg/ml to the cells, which were then incubated at 37° C. for 1 hour. The cells were washed with PBS and the formazan dye was dissolved in isopropanol. The amount of the formazan dye transformed was measured by means of a Powerwave reader (Biotek, Winooski, Vt.) at 570 nm; background measurement 690 nm. The calibration curve was obtained in such a way that the capacity of the serial dilutions of the cells to transform MTS was measured and the viable cell count was calculated using Gen5 software.
(§3) In the table the EC50 values of each substance is presented (the concentration where half of the cells died based on the results of the MTS test).

[2] = system: U87 (human glioma); experiment: MTS cytotoxicity test, U87; assay type: cell-based; conditions: U-87 MG, read-out: EC50 (concentration where half of the cells died, MTS test)
Protocol: as §1, §2, §3

[3] = system: HepG2 (human hepatocellular carcinoma); experiment: MTS cytotoxicity test, HepG2; assay type: cell-based; conditions: HepG2 (liver), read-out: EC50 (concentration where half of the cells died, MTS test)
Protocol: as §1
(§4) 1:1 mixture of HepG2, Hep3B, SUM149PT: Dulbecco's Modified Eagle Medium (D-MEM) (high glucose) (Gibco BRL, Carlsbad, Calif., USA) and Nutrient Mixture F-12 Ham (Sigma, St. Louis, Mo., USA), penicillin (50 IU/ml)-streptomycin ([…]), 10% foetal cattle serum.
as §2, §3

[4] = system: Hep3B (human hepatocellular carcinoma); experiment: MTS cytotoxicity test, Hep3B; assay type: cell-based; conditions: Hep3B (liver), read-out: EC50 (concentration where half of the cells died, MTS test)
Protocol: as §1, §4, §2, §3

[5] = system: K562 (human erythroblastic leukaemia); experiment: MTS cytotoxicity test, K562; assay type: cell-based; conditions: read-out: EC50 (concentration where half of the cells died, MTS test)
Protocol: as §1, §2, §3

[6] = system: SUM149PT (human breast tumour); experiment: MTS cytotoxicity test, SUM149PT; assay type: cell-based; conditions: read-out: EC50 (concentration where half of the cells died, MTS test)
Protocol: as §1, §4, §2, §3

[7] = molecular target: T1, Matrix metalloproteinase 9 (MMP-9, 92 kDa gelatinase) (Rattus norvegicus, UniProt P50282); experiment: Gelatinase activity in gel after electrophoresis of H9c2 supernatant (MMP-9); assay type: biochemical; conditions: 30 uM, substance present during incubation of the gel
T1 construct: endogenous in cells; host or cells: H9c2 rat embryonic myocardial cells (culture supernatant)
T1 sequence (P50282 108-708): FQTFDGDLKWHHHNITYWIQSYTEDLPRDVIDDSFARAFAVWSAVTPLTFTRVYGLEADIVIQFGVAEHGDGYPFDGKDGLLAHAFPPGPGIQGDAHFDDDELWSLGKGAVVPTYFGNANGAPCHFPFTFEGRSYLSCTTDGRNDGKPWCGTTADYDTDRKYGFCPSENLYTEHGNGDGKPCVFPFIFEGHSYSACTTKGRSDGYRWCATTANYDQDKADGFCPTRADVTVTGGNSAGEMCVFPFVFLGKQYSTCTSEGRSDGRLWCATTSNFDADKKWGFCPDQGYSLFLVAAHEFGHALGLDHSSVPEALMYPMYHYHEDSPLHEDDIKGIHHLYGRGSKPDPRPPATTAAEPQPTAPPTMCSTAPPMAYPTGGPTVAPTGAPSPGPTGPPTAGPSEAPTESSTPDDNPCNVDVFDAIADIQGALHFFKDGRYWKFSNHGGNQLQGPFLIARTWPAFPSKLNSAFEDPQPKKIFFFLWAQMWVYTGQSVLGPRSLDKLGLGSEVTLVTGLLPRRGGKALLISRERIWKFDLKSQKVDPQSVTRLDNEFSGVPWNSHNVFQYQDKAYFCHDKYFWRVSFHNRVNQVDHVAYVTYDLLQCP
Protocol: (§5) H9c2 rat embryonic myocardial cells (from ATCC, Rockville, Md., USA) were grown in Dulbecco's modified eagle's medium containing 10% cattle serum, 4 mM L-glutamine (Sigma-Aldrich, Hungary), 100 IU/ml penicillin and 100 ug/ml streptomycin.

[8] = molecular target: T2, Matrix metalloproteinase 2 (MMP-2, 72 kDa gelatinase) (Rattus norvegicus, UniProt P33436); experiment: Gelatinase activity in gel after electrophoresis of H9c2 supernatant (MMP-2); assay type: biochemical; conditions: 30 uM, substance present during incubation of the gel
T2 construct: endogenous in cells; host or cells: H9c2 rat embryonic myocardial cells (culture supernatant)
T2 sequence (P33436 110-662): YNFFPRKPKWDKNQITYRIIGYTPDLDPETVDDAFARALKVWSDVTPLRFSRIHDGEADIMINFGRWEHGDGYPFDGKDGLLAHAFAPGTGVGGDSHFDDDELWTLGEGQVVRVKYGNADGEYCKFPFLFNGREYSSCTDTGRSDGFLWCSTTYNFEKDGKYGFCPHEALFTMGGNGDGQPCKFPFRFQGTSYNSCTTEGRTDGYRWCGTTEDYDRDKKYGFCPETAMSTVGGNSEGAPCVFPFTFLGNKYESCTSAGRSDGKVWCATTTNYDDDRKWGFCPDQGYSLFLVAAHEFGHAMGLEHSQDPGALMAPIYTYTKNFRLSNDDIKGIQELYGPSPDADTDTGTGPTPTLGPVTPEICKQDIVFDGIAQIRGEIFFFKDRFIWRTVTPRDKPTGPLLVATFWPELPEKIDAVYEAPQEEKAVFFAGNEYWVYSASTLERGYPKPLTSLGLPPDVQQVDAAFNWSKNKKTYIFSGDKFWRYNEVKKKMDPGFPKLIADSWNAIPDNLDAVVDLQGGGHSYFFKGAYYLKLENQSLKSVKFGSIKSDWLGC
Protocol: as §5

[9] = system: Lewis rats; experiment: Heterotopic heart transplantation, reperfusion injury; assay type: in vivo, rat; conditions: 3 mg/kg
Protocol: A heterotropic heart transplant experiment model was performed in a way described earlier (Poly(ADP-Ribose): inhibition of polymerase reduces the reperfusion injury occurring after heart transplantation (Szabó et al. 2002) , Briefly: the donor hearts were transplanted from Lewis rats. After ischemic protection performed at 4° C. for 1 hour, the hearts were implanted intraabdominally via anastomising the aorta and the pulmonary artery of the donor heart with the abdominal aorta or vena cava of the recipient rat. Care of all animals was performed by people in line with the requirements of “Principles of Laboratory Animal Care”; National Society of Medical Research, and the Guide for the Care and Use of Laboratory Animals prepared by the National Academy of Sciences; publisher: National Institutes of Health (NIH Publication No. 86-23, revised 1996).
The functional measurements of the transplant were carried out as follows: the left ventricular systolic pressure (LVSP), left ventricular end diastolic pressure (LVEDP), rate of the change of blood pressure (dP/dt) and relaxation time constant (TE) were measured by means of a Millar micromanometer (Millar Instruments, Inc.), with different LV, using an intraventricular ballon. The total coronary blood flow (CBF) was measured on the donor aorta with perivascular ultrasonic flow sample. After determination of the baseline, the endothelium-dependent vasodilator acetylcholine (ACH, 1 nmol/l, 0.2 ml) and bradykinin (BK 0.1 nmol/l, 0.2 ml), and the endothelium-independent vasodilator sodium nitroprussid (SNP, 10 nmol/l, 0.2 ml) were added directly into the coronary arteries of the transplant through the donor aorta. Between the infusions, CBP was allowed to return to the baseline level. The vasodilator response was expressed as the maximum percentage change of CBF from the baseline.
Two transplant groups were studied (n=6/in each group). Just before loosening the aorta clamp, slow injection of common salt solution (control group) or the compound according to Example 1 (3 mg/kg) was started and it was continued during the first 5 minutes of the reperfusion period.
Measurement of the systolic and diastolic function and CBF in group A (control) and group B (compound according to Example 1) was performed 1 hour after reperfusion.

[10] = system: Wistar rats; experiment: Forced swimming test; assay type: in vivo, rat; conditions: 30 mg/kg, previous experiments
Protocol: Wistar rats received from Charles River Laboratories (Budapest, Hungary) were used as test animals. App. 2 month rats were used (200-300 g body weight). The animals were conditioned for app. 1 week. The animals received standard laboratory food (Charles River Laboratories, Budapest, Hungary) and tap water ad libitum. The temperature and humidity were kept at 22±2° C. and 60±10%, respectively. The rats were kept in groups of 5 in 45×35×25 cm Makrolon cages. Day/night cycles of 12 hours were used; the light was switched off at 19:00. The experiments were conducted in the daylight period. The experiments were conducted in accordance with the European Communities Council Directive of 24 Nov. 1985 (86/609/EEC, according to the control and approval of the Animal Welfare Committee of the Institute of Experimental Medicine).
Rats were forced to swim twice as described in the following publication: Porsolt et al., 1978. On the first day every rat was placed in a 15 cm wide, 35 cm high glass cylinder filled with water to 30 cm. […] Behaviour of the animals was recorded by a video camera located 2 meters from the cylinders. The following behaviour factors were recorded: struggling (the animal tries to leave the cylinder by climbing on the walls); swimming (swimming round in the cylinder) and floating (the animal makes only the movements necessary to keep its head above the wafer). […]

[11] = after 60 minute reperfusion, vs control

Structure (SMILES) | EC50 [1] | EC50 [2] | EC50 [3] | EC50 [4] | EC50 [5] | EC50 [6] | further results
CCOC(=O)c1ccc(NC(c2ccc([N+](=O)[O-])cc2)c2ccc3cccnc3c2O)cc1 (stereo not shown) [Example 2, Ethyl 4-((8-hydroxyquinolin-7-yl) (4-nitrophenyl)methylamino)benzoate] | 1 µM | 4 µM | 2.5 µM | 5 µM | – | – | –
Cc1ccnc(NC(c2ccc(C(F)(F)F)cc2)c2ccc3cccnc3c2O)n1 (stereo not shown) [Example 10, 7-((4-methylpyrimidin-2-ylamino) (4-(trifluoromethyl)phenyl)methyl)quinolin-8-ol] | – | 5 µM | 1 µM | – | 7 µM | 5 µM | –
Cc1ccnc(NC(c2ccc(C(F)(F)F)cc2)c2ccc3cccnc3c2O)c1 (stereo not shown) [Example 8, 7-[(4-methyl-pyridin-2-ylamino)-(4-trifluoromethylphenyl)-methyl]-quinolin-8-ol] | – | – | – | – | 8 µM | 10 µM | –
Cc1ccnc(NC(c2ccccc2O)c2ccc3cccnc3c2O)n1 (stereo not shown) [Example 11, 7-[(2-hydroxyphenyl)-(4-methyl-pyrimidin-2-ylamino)-methyl]-quinolin-8-ol] | – | – | 1 µM | – | 5 µM | – | –
Cc1cccc(NC(c2ccc(F)c(F)c2)c2ccc3cccnc3c2O)n1 (stereo not shown) [Example 16, 7-((6-methylpyridin-2-ylamino) (3,4-difluorophenyl)methyl)quinolin-8-ol] | – | 2.5 µM | 5 µM | – | 1.5 µM | – | –
Cc1cccc(NC(c2ccc(C(F)(F)F)cc2)c2ccc3cccnc3c2O)n1 (stereo not shown) [Example 7, 7-[(6-methyl-pyridin-2-ylamino)-(4-trifluoromethyl-phenyl)-methyl]-quinolin-8-ol] | 0.3 µM | – | 0.5 µM | 5 µM | 15 µM | – | –
Oc1c(C(Nc2ccc(C(F)(F)F)cc2)c2ccccn2)ccc2cccnc12 (stereo not shown) [Example 5, 7-[pyridin-2-yl-(4-trifluoromethyl-phenylamino)-methyl]-quinolin-8-ol] | 0.1 µM | 3.5 µM | 2 µM | 2 µM | – | – | –
Cc1cccc(NC(c2ccc(C(F)(F)F)cc2F)c2ccc3cccnc3c2O)n1 (stereo not shown) [7-((6-methylpyridin-2-ylamino)(2-fluoro-4-(trifluoromethyl)phenyl)methyl)quinolin-8-ol] | – | 2.5 µM | 1 µM | – | 1.5 µM | – | –
Cc1cccc(NC(c2ccc([N+](=O)[O-])cc2)c2ccc3cccnc3c2O)n1 (stereo not shown) [Example 1, 7-((6-methylpyridin-2-ylamino) (4-nitrophenyl)methyl)quinolin-8-ol] | 1 µM | 2.5 µM | 0.5 µM | – | 1 µM | 10 µM | inhibition of 92 kDa gelatinase (MMP-9) [7]: inhibited the 92 kDa gelatinase (MMP-9) as well, hut to a less extent than the 72 kDa gelatinase; inhibition of 72 kDa gelatinase (MMP-2) [8]: completely inhibited; LVEDP (left ventricular end diastolic pressure) [9, 11]: did not show changing values between the groups; LVSP (left ventricular systolic pressure) [9, 11]: significantly (P=0.05) higher; peak positive dP/dt [9, 11]: significantly (P=0.05) higher; systolic functional recovery [9, 11]: significantly better; reperfusion injury after heart transplantation ([9]; injection at start of reperfusion): Reduces Reperfusion Injury; systolic heart function curves ([9]; vs group treated with the carrier (FIG. 1a, 1b)): significant drift to the left
CN(C)CCCN1c2ccccc2CCc2ccccc21 [impipramine, imipramine] | – | – | – | – | – | – | floating in forced swimming test [10]: reliably reduced floating
